Patent US9518015B2, “EP1 receptor ligands” (LABORATORIOS DEL DR. ESTEVE, S.A., priority 2011, dated 2016)

These molecules were tested against T1, human EP1 receptor (Homo sapiens, UniProt P34995) (assay: Test 1: Human EP1 receptor radioligand binding assay ([3H]-PGE2, transfected HEK-293 cell membranes)). Conditions: at 10 μM.
T1 sequence (P34995 1-402): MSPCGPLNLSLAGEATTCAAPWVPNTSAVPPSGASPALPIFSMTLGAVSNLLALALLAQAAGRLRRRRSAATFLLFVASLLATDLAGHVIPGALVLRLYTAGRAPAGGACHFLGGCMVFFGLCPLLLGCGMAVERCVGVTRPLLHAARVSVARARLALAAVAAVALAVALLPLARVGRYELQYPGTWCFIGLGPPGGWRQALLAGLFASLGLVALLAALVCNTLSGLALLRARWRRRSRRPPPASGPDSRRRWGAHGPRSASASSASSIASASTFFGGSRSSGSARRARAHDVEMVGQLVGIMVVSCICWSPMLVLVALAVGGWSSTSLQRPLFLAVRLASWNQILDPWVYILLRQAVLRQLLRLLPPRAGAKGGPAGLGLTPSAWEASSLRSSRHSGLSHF
Parameters: expressed in transfected cells; host or cells: HEK-293 cell membranes
Procedure: Test 1: Human EP1 Receptor Radioligand Binding Assay
To investigate binding properties of EP1 receptor ligands to human EP1 receptor, transfected HEK-293 cell membranes and [3H]-PGE2 (Perkin Elmer) were used. In 96-well plates the assay was carried out with a total reaction volume of 250 μl, containing 25 μl of membrane suspension (30 μg protein/well), 25 μl of [3H]-PGE2 (10 nM) in either absence or presence of 25 μl of either buffer or PGE2 (10 μM) for total and non-specific binding, respectively. Binding buffer contained 10 mM MES, 1 mM MgCl2 and 1 mM EDTA at pH 6.0. Plates were incubated at 25° C. for 60 minutes. After the incubation period, 200 μl of incubate were transferred to MultiScreen HTS, FB plates (Millipore), filtered and plates were washed 6 times with ice-cold 10 mM MES, 1 mM MgCl2 and 1 mM EDTA at pH 6.0. Filters were dried and counted in a MicroBeta scintillation counter (Perkin-Elmer) using EcoScint liquid scintillation cocktail.
Percentage inhibition was calculated relating compounds activity to the 0% inhibition of the wells incubated with 10 nM [3H]-PGE2 alone (total binding) and 100% inhibition of the wells incubated with 10 nM [3H]-PGE2 plus 10 μM PGE2 (non-specific binding).

Results of Test 1 (Binding assay), % inh	Molecule
## (45 < % inh < 75)	1-(5-chloro-2-((2-chloro-5-fluorobenzyl)oxy)benzyl)-1H-indole-4-carboxylic acid [Example 30]
# (% inh > 75)	CC(C)(F)COc1ccc(Cl)cc1Cn1ncc2c(C(=O)[O-])ccnc21.[Na+] [Example 213]

Same assay, conditions: read-out: Results of Test 1 (Binding assay), % inh

Molecule	inhibition at 10 µM [%]
O=C(O)c1cccc2c1ccn2Cc1cc(Cl)ccc1OCc1cc(F)c(F)cc1F [Example 15, 1-(5-chloro-2-((2,4,5-trifluorobenzyl)oxy)benzyl)-1H-indole-4-carboxylic acid]	> 75
O=C(O)c1cccc2c1ccn2Cc1cc(F)ccc1OCc1cc(F)c(F)cc1F [Example 16, 1-(5-fluoro-2-((2,4,5-trifluorobenzyl)oxy)benzyl)-1H-indole-4-carboxylic acid]	> 75
O=C(O)c1cccc2c1ccn2Cc1cc(Br)ccc1OCc1ccc(F)c(F)c1F [Example 22, 1-(5-bromo-2-((2,3,4-trifluorobenzyl)oxy)benzyl)-1H-indole-4-carboxylic acid]	45 to 75
O=C(O)c1cccc2c1ccn2Cc1cc(Br)ccc1OCc1ccc(F)cc1Cl [Example 27, 1-(5-bromo-2-((2-chloro-4-fluorobenzyl)oxy)benzyl)-1H-indole-4-carboxylic acid]	> 75
O=C(O)c1cccc2c1ccn2Cc1cc(Cl)ccc1OCc1cc(F)c(F)cc1Cl [Example 31, 1-(5-chloro-2-((2-chloro-4,5-difluorobenzyl)oxy)benzyl)-1H-indole-4-carboxylic acid]	45 to 75
O=C(O)c1cccc2c1ccn2Cc1cc(F)ccc1OCc1cc(F)ccc1F [Example 32, 1-(2-((2,5-difluorobenzyl)oxy)-5-fluorobenzyl)-1H-indole-4-carboxylic acid]	45 to 75
O=C(O)c1cccc2c1ccn2Cc1cc(Cl)ccc1OCc1c(F)cc(Cl)cc1F [Example 57, 1-(5-chloro-2-((4-chloro-2,6-difluorobenzyl)oxy)benzyl)-1H-indole-4-carboxylic acid]	> 75
O=C(O)c1ccnc2c1ccn2Cc1cc(Cl)ccc1OCc1ccc(F)cc1F [Example 91]	> 75
COc1ccc(OCc2ccc(F)cc2F)c(Cn2ccc3c(C(=O)O)cccc32)c1 [Example 101, sodium 1-{2-[(2,4-difluorobenzyl)oxy]-5-methoxybenzyl}-1H-indole-4-carboxylate]	45 to 75
CCCOc1ccc(F)cc1Cn1ccc2c(C(=O)O)cccc21 [Example 104]	45 to 75
O=C(O)c1cccc2c1ccn2Cc1cc(Cl)ccc1OC1CCCC1 [Example 105]	> 75
CC(C)COc1ccc(F)cc1Cn1ccc2c(C(=O)O)cccc21 [Example 108]	45 to 75
O=C(O)c1cccc2c1ccn2Cc1cc(Cl)ccc1OCC(F)(F)F [Example 112]	> 75
CCCOc1ccc(F)cc1Cn1ncc2c(C(=O)O)cccc21 [Example 135]	45 to 75
CC(C)(F)COc1ccc(Cl)cc1Cn1cc(CCO)c2c(C(=O)O)cccc21 [Example 158]	> 75
O=C(O)c1cccc2c1c(CCO)cn2Cc1cc(F)ccc1OCc1ccc(F)cc1F [Example 159]	> 75
COCCOc1ccc(Cl)cc1CN1CCc2c(C(=O)O)cccc21 [Example 201]	45 to 75
CC(C)(C)COc1ccc(Cl)cc1CN1CCc2c(C(=O)O)cccc21 [Example 203]	45 to 75

Further lines, results first:

inhibition at 10 µM [%]	Molecule
> 75	O=C(O)c1cccc2c1ccn2Cc1cc(Br)ccc1OCc1ccc(F)cc1C(F)(F)F [Example 26, 1-(5-bromo-2-((4-fluoro-2-(trifluoromethyl)benzyl)oxy)benzyl)-1H-indole-4-carboxylic acid]
> 75	O=C(O)c1cccc2c1ccn2Cc1cc(Cl)ccc1OCc1ccccc1 [Example 44, 1-(2-(benzyloxy)-5-chlorobenzyl)-1H-indole-4-carboxylic acid]
> 75	O=C(O)c1cccc2c1ccn2Cc1cc(C(F)(F)F)ccc1OCc1ccc(Br)cc1F [Example 50, 1-(2-((4-bromo-2-fluorobenzyl)oxy)-5-(trifluoromethyl)benzyl)-1H-indole-4-carboxylic acid]
> 75	O=C(O)c1cccc2c1ccn2Cc1cc(F)ccc1OCc1ccc(Br)cc1F [Example 56, 1-(2-((4-bromo-2-fluorobenzyl)oxy)-5-fluorobenzyl)-1H-indole-4-carboxylic acid]
> 75	O=C(O)c1ncnc2c1ccn2Cc1cc(Cl)ccc1OCc1ccc(Cl)cc1F [Example 98]
45 to 75	CCCOc1ccc(Cl)cc1Cn1ccc2c(C(=O)O)cccc21 [Example 106]
45 to 75	O=C(O)c1cccc2c1ccn2Cc1cc(Cl)ccc1OCCF [Example 111]
> 75	O=C(O)c1cccc2c1cnn2Cc1cc(Cl)ccc1OC1CCCC1 [Example 133]
45 to 75	O=C(O)c1ccc(F)c2c1ccn2Cc1ccccc1OCc1ccc(F)cc1F [Example 140]
45 to 75	CC(C)C(C)Oc1ccc(Cl)cc1CN1CCCc2c(C(=O)O)cccc21 (stereo not shown) [Example 176]

Each molecule was assayed against T1, human EP1 receptor (assay: Test 2: Measurement of IP1 responses by HTRF, suspended HEK-293 cells stably expressing human EP1 receptors, PGE2 30 nM). Conditions: HEK293, at 10 μM, read-out: Results of Test 2 (Functional assay), % inh.
Format: cell-based
Parameters: expressed in transfected cells
Procedure: Test 2: Measurement of IP1 responses by Homogeneous Time Resolved Fluorescence
IP1 measurements on HEK-293 cells that stably expressed human EP1 receptors were performed by using a system based on Homogeneous Time Resolved Fluorescense (HTRF) (Gabriel et al., 2003). This technology allows the direct measurement of IP1 in living cells. The principle of this assay is based on competition between IP1 produced by cells and IP1-d2 conjugate for the binding with monoclonal anti-IP1-cryptate conjugate. The HTRF IP1 kit from CisBio was used according to the manufacturer's directions. The experimental procedure was performed as stated below.
Suspended cells (30,000 cells per well) were added to 96-well culture plates in 40 μl of stimulation buffer (supplied by the kit). Compounds were then added in 20 μl of stimulation buffer and incubated at 37° C. for 15 minutes followed by 10 μl of PGE2 to a final concentration of […]. After 90 minutes at 37° C., the reaction was stopped lysing the cells with a mixture of 15 μl of cryptate and 15 μl of IP1-d2 prepared in the lysis buffer supplied by the manufacturer. Plates were incubated for an additional hour at room temperature and read at 665 nm/620 nm using an UltraEvolution Plate reader (Tecan).
Antagonist percentage inhibition was calculated relating compounds activity to the 0% inhibition of the wells incubated with 10 nM PGE2 alone and 100% inhibition of the wells incubated with 10 nM PGE2 plus 1 μM of the reference antagonist.

Molecule	inhibition at 10 µM [%]
O=C(O)c1cccc2c1ccn2Cc1cc(Br)ccc1OCc1ccccc1 [Example 2, 1-(2-(benzyloxy)-5-bromobenzyl)-1H-indole-4-carboxylic acid]	> 75
O=C(O)c1cccc2c1ccn2Cc1cc(C(F)(F)F)ccc1OCc1ccc(Cl)cc1F [Example 6, 1-(2-((4-chloro-2-fluorobenzyl)oxy)-5-(trifluoromethyl)benzyl)-1H-indole-4-carboxylic acid]	> 75
O=C(O)c1cccc2c1ccn2Cc1cc(Br)ccc1OCC1CC1 [Example 8, 1-(5-bromo-2-(cyclopropylmethoxy)benzyl)-1H-indole-4-carboxylic acid]	> 75
O=C(O)c1cccc2c1ccn2Cc1cc(Br)ccc1OCc1ccc(Cl)cc1F [Example 9, 1-(5-bromo-2-((4-chloro-2-fluorobenzyl)oxy)benzyl)-1H-indole-4-carboxylic acid]	> 75
CC(C)COc1cc(Cl)ccc1Cn1ccc2c(C(=O)O)cccc21 [Example 10, 1-(4-chloro-2-isobutoxybenzyl)-1H-indole-4-carboxylic acid]	45 to 75

Results, then the molecule that gave them:

inhibition at 10 µM [%]	Molecule
> 75	O=C(O)c1cccc2c1ccn2Cc1cc(C(F)(F)F)ccc1OCc1ccccc1 [Example 3, 1-(2-(benzyloxy)-5-(trifluoromethyl)benzyl)-1H-indole-4-carboxylic acid]
> 75	O=C(O)c1cccc2c1ccn2Cc1cc(Br)ccc1OCc1ccc(F)cc1 [Example 4, 1-(5-bromo-2-((4-fluorobenzyl)oxy)benzyl)-1H-indole-4-carboxylic acid]
> 75	O=C(O)c1cccc2c1ccn2Cc1cc(Cl)ccc1OCc1ccc(F)cc1 [Example 5, 1-(5-chloro-2-((4-fluorobenzyl)oxy)benzyl)-1H-indole-4-carboxylic acid]
> 75	O=C(O)c1cccc2c1ccn2Cc1cc(Cl)ccc1OCC1CC1 [Example 7, 1-(5-chloro-2-(cyclopropylmethoxy)benzyl)-1H-indole-4-carboxylic acid]

Same assay, conditions: at 10 μM

Results of Test 2 (Functional assay), % inh	Molecule
$$ (45 < % inh < 75)	2-((1-(5-chloro-2-(cyclopropylmethoxy)benzyl)-1H-indol-4-yl)oxy)acetic acid [Example 86]
